Data from US20150004110A1, “NOVEL ANTI-AGING AND DEPIGMENTING COSMETIC COMPOSITIONS” (DIVERCHIM, priority 2011, published 2015).

Test system: skin explants (abdominoplasty)
Assay: Histological assessment of the general morphology of skin explants maintained in survival
Type: cell-based, human
Details: 2 μg/mL in DMSO, after 9 days of survival
Description: 1. Preparation of the explants • During abdominoplasty of a person, 45 skin explants were prepared. The explants were put in BEM medium (BIO-EC's Explants Medium) for survival at 37° C. in humid atmosphere, enriched with 5% CO2.
2. Application of the products • The solutions are prepared in DMSO from pure products, in order to obtain final concentrations of […] by incorporating an identical volume of 10 μl in each well and for each treatment. The treatment was carried out in the survival medium on days 0, 1, 2, 5 and 7.
3. Taking samples • On D0, the 3 explants of batch TO were taken and each explant was cut in two. One part was fixed in buffered formol for observation of the general morphology. The other was frozen and stored at −80° C. • On D5 and D9, 3 explants from each batch were taken and treated in the same way.
4. […]
5. Microscopic observations • The microscopic observations were carried out by light microscopy and fluorescence microscopy, using a Orthoplan-type Leica microscope, with ×25 objective. The images were recorded with a Sony DXC 390P tri CCD camera and stored using the Leica IM1000 data archiving software. • The general morphology was observed on sections in paraffin after staining with Masson trichrome, Goldner variant according to procedure MO-H-157. […]

`C[C@]12CC[C@H](O)CC1=CC[C@@H]1[C@@H]2CC[C@]2(C)C(=O)CC[C@@H]12` [(+)-dehydroisoandrosterone, reference compound] was tested, and the “General morphology: epidermal structure and papillary dermis” value was “does not alter the epidermal structure or the papillary dermis”.
